Consider 16 compounds from patent US8129399B2, “Aminopyrimidines useful as kinase inhibitors” (Vertex Pharmaceuticals Incorporated, priority 2005, dated 2012).

Type in all cases: biochemical
The target in one test is JAK-2 (Homo sapiens, UniProt O60674). In words: JAK2 inhibition assay. Conditions: 12 μM ATP.
A further test deals with T1, FLT-3 (Homo sapiens, UniProt P36888).
T1 sequence (P36888 27-993): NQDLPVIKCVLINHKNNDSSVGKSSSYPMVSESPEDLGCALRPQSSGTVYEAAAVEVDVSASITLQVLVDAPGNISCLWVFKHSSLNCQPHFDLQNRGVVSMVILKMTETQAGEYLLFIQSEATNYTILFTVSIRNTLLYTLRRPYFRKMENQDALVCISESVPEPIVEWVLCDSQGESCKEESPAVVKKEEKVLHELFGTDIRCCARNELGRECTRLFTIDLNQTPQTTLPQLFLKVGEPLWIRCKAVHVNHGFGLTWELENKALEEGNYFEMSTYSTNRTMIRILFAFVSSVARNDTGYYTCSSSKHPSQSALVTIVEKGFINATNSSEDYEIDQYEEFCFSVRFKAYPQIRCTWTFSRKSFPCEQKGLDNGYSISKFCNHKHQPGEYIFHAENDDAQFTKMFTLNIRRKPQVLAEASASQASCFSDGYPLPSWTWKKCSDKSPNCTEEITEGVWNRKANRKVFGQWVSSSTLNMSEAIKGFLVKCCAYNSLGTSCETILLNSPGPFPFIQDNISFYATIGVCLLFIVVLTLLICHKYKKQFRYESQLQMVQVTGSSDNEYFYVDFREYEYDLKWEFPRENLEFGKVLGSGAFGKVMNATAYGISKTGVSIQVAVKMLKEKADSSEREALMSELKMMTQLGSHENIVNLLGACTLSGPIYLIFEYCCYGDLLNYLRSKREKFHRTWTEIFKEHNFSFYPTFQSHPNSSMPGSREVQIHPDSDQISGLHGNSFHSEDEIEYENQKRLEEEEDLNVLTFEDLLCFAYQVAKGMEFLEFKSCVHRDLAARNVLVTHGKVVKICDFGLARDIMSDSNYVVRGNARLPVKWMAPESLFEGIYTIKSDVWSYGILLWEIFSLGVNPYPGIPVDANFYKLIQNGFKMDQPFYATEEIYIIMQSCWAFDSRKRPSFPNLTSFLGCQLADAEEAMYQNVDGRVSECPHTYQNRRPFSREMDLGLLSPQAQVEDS
In words: FLT-3 inhibition assay, radiometric filter-binding. Particulars: 90 μM ATP. The procedure: This assay monitors the ^33P incorporation into a substrate poly(Glu, Tyr) 4:1 (pE4Y). Reactions were carried out in a solution containing 100 mM HEPES (pH 7.5), 10 mM MgCl2, 25 mM NaCl, 1 mM DTT, 0.01% BSA and 2.5% DMSO. Final substrate concentrations in the assay were 90 μM ATP and 0.5 mg/ml pE4Y (both from Sigma Chemicals, St Louis, Mo.). The final concentration of a compound of the present invention was generally between 0.01 and 5 μM. Typically, a 12-point titration was conducted by preparing serial dilutions from 10 mM DMSO stock of test compound. Reactions were carried out at room temperature.
Two assay solutions were prepared. Solution 1 contains 100 mM HEPES (pH 7.5), 10 mM MgCl2, 25 mM NaCl, 1 mg/ml pE4Y and […] (containing 0.3 mCi of [γ-33^P]ATP for each reaction). Solution 2 contains 100 mM HEPES (pH 7.5), 10 mM MgCl2, 25 mM NaCl, 2 mM DTT, 0.02% BSA and 3 nM FLT-3. The assay was run on a 96 well plate by mixing 50 μl each of Solution 1 and […] of the compounds of the present invention. The reaction was initiated with Solution 2. […] All of the reaction volume was then transferred to a filter plate and washed with 5% TCA by a Harvester 9600 from TOMTEC (Hamden, Conn.). The amount of ^33P incorporation into pE4y was analyzed by a Packard Top Count Microplate Scintillation Counter (Meriden, Conn.). The data was fitted using Prism software to get an IC50 or Ki.

A further test addresses Aurora-1 (Aurora B) (Homo sapiens, UniProt Q96GD4). In words: Aurora-1 (Aurora B) inhibition assay (radiometric). The procedure:
An assay buffer solution was prepared which consisted of 25 mM HEPES (pH 7.5), 10 mM MgCl2, 0.1% BSA and 10% glycerol. […] To 22 μL of the Aurora-B solution, in a 96-well plate, was added 2 μl of a compound stock solution in DMSO and the mixture allowed to equilibrate for 10 minutes at 25° C. The enzyme reaction was initiated by the addition of 16 μl stock [γ-^33P]-ATP solution (˜20 nCi/μL) prepared in assay buffer, to a final assay concentration of 800 μM. The reaction was stopped after 3 hours by the addition of 16 μL 500 mM phosphoric acid and the levels of ^33P incorporation into the peptide substrate were determined by the following method.
A phosphocellulose 96-well plate (Millipore, Cat no. MAPHNOB50) was pre-treated with 100 μL of a 100 mM phosphoric acid prior to the addition of the enzyme reaction mixture (40 μL). The solution was left to soak on to the phosphocellulose membrane for 30 minutes and the plate subsequently washed four times with 200 μL of a 100 mM phosphoric acid. […] Levels of non-enzyme catalyzed background radioactivity were determined by adding 16 μL of the 500 mM phosphoric acid to control wells, containing all assay components (which acts to denature the enzyme), prior to the addition of the [γ-^33P]-ATP solution. Levels of enzyme catalyzed ^33P incorporation were calculated by subtracting mean background counts from those measured at each inhibitor concentration. […] Ki values were calculated from initial rate data by non-linear regression using the Prism software package (Prism 3.0, Graphpad Software, San Diego, Calif.).

The target in another test is FGFR1 (Homo sapiens, UniProt P11362). In words: FGFR1 inhibition screen. Conditions: ATP at or close to Km. An excerpt: Compound(s) were screened for their ability to inhibit Arg (Abl-2), FGFR1, MLK1, Tie2, and TrkA using screening methods known to one of ordinary skill in the art. All of the above enzymes were screened with ATP concentrations at or close to the Km for ATP.
Sequence of FGFR1 (P11362 22-822, species assumed): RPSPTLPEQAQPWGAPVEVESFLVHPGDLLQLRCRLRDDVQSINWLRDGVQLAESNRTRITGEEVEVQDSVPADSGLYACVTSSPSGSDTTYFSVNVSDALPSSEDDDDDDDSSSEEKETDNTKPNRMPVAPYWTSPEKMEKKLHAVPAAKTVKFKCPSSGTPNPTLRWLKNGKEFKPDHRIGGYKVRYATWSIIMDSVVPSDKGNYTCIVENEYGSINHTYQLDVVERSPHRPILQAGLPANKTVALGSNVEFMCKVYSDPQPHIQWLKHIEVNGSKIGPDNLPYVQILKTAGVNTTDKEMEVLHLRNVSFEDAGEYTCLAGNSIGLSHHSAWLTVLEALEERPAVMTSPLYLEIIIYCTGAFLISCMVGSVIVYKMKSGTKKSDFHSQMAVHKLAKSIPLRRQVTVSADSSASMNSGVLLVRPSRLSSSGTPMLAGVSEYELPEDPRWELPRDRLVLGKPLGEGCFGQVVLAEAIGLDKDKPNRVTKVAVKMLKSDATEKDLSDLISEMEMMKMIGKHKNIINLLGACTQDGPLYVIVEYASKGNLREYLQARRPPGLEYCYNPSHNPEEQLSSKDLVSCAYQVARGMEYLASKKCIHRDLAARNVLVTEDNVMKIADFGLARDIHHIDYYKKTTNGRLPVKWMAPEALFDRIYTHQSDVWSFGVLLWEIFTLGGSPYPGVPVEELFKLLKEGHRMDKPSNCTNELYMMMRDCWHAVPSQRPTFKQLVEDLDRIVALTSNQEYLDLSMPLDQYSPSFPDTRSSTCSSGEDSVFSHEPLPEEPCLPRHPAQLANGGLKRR

In test [1] the target is N-terminally truncated (Δ 27) Abl kinase (Homo sapiens, UniProt P00519). In words: Abl kinase activity inhibition assay, coupled enzyme. Here is the method:
Reactions were carried out in a solution containing 100 mM HEPES (pH 7.5), 10 mM MgCl2, 25 mM NaCl, 300 μM NADH, 1 mM DTT and 3% DMSO. […] Final concentrations of the components of the coupled enzyme system were 2.5 mM phosphoenolpyruvate, 200 μM NADH, 60 μg/ml pyruvate kinase and 20 μg/ml lactate dehydrogenase.
An assay stock buffer solution was prepared containing all of the reagents listed above with the exception of ATP and the test compound of interest. […] Rates of reaction were obtained using a Molecular Devices Spectramax plate reader (Sunnyvale, Calif.) over 10 min at 30° C. The Ki values were determined from the residual rate data as a function of inhibitor concentration using nonlinear regression (Prism 3.0, Graphpad Software, San Diego, Calif.).

The mark [2] stands for this setting: 800 μM ATP, read-out: Aurora B Ki.

Where two headings read alike, the source gives them in different places.

Sequence of JAK-2 (O60674 whole entry, species assumed): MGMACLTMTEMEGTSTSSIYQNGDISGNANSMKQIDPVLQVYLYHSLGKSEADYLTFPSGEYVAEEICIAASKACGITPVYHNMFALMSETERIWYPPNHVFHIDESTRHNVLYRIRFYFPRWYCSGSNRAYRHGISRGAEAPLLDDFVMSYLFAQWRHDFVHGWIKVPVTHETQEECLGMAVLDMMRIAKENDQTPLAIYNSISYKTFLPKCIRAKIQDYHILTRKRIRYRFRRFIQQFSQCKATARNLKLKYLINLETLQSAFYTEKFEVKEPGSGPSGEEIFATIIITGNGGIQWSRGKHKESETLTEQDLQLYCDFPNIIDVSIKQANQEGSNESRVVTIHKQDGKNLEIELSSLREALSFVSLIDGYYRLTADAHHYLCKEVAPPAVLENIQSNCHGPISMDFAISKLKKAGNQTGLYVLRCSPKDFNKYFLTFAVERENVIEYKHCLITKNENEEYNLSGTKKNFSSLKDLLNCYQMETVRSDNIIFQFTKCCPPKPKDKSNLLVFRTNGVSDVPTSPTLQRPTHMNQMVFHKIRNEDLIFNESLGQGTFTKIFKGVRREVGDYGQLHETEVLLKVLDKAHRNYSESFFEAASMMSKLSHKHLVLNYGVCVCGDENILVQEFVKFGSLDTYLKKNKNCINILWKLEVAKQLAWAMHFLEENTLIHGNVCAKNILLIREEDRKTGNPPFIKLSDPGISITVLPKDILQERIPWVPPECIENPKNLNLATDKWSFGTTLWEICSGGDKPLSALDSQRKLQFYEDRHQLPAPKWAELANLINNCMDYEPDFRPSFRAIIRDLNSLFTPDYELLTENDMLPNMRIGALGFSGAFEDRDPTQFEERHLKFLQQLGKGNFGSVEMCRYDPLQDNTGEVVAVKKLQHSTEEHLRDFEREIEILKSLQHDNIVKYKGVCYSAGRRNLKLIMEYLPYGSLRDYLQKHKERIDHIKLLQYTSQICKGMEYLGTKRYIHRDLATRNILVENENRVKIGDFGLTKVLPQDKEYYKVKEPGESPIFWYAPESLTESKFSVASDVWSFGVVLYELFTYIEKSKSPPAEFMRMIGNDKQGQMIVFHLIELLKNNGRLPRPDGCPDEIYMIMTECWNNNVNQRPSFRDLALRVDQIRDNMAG
Sequence of Aurora-1 (Aurora B) (Q96GD4 whole entry): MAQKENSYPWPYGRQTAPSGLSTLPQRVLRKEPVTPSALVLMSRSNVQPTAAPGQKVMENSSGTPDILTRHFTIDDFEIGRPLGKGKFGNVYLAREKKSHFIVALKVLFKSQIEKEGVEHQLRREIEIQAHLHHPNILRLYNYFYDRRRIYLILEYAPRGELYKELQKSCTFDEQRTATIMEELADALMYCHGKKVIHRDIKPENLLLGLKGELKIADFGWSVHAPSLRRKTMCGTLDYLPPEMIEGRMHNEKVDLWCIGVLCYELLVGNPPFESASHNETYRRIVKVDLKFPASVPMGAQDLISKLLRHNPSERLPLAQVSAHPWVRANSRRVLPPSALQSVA
Sequence of N-terminally truncated (Δ 27) Abl kinase (P00519 28-1130 limits assumed, stated change not applied): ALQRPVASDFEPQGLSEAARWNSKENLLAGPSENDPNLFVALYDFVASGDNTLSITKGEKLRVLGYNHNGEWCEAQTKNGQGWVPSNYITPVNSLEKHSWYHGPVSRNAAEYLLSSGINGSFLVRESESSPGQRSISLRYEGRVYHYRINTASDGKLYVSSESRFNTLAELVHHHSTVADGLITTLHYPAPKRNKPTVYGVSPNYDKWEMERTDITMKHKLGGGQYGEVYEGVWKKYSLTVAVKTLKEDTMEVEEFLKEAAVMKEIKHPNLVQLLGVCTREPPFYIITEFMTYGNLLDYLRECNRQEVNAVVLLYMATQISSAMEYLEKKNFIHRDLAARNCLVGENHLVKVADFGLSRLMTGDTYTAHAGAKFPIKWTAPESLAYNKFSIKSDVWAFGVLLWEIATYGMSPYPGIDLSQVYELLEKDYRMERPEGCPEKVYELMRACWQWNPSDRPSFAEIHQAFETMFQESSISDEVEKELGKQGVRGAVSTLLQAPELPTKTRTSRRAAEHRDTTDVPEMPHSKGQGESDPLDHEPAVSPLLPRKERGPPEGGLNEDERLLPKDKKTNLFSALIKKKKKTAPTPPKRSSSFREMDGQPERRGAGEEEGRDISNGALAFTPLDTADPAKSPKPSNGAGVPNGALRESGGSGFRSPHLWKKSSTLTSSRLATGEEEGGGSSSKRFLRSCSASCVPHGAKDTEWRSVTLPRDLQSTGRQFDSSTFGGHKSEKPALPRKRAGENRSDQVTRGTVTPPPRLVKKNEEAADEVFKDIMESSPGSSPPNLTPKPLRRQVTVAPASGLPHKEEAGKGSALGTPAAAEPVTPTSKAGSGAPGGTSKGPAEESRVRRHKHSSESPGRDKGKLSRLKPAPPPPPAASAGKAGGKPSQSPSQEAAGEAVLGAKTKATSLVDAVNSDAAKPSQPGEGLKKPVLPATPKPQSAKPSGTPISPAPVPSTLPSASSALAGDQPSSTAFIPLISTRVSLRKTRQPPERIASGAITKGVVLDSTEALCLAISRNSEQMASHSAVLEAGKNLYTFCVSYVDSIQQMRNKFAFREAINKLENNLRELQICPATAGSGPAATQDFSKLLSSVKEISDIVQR

For the compound `CCC(=O)Nc1ccc(Sc2nc(Nc3cc(C)n[nH]3)cc(N3CC(O)(C(C)CC)C3)n2)cc1` (stereo not drawn) [Compound I-6], the Ki at JAK-2 worked out at 44 nM; on FLT-3, 48 nM; on Aurora-1 (Aurora B), 6.2 nM.

Consider `Cc1cc(Nc2cc(N3CC(F)(C4CC4)C3)nc(Sc3ccc(NC(=O)CC4CC4)cc3)n2)[nH]n1` [Compound I-19], for which the Ki was determined as 130 nM on JAK-2, 140 nM at FLT-3 and 21 nM on Aurora-1 (Aurora B) (setting [2]). On FGFR1 (Table 5), this compound came in with an IC50 of 35 nM.

On to `O=C(Nc1ccc(Sc2nc(Nc3cc(C4CC4)[nH]n3)cc(N3CC(O)(C4CC4)C3)n2)cc1)C1CC1` [Compound I-10], for which the results for the Ki on JAK-2, at FLT-3 and at Aurora-1 (Aurora B) (setting [2]) were 54 nM, 2.5 nM and 7 nM, respectively.

On to `CCC(=O)Nc1ccc(Sc2nc(Nc3cc(C)n[nH]3)cc(N3CC(O)(C4CCCC4)C3)n2)cc1` [Compound I-3], for which the Ki in test [1] worked out at 30 nM; on JAK-2, 34 nM; at FLT-3 it was 26 nM; on Aurora-1 (Aurora B) (setting [2]) it was 6.5 nM.

Turning to `Cc1cc(Nc2cc(N3CC(F)(C4CC4)C3)nc(Sc3ccc(NC(=O)C4CC4(F)F)cc3)n2)[nH]n1` (stereo not drawn) [Compound I-20], the Ki on JAK-2 stood at 51 nM; on FLT-3 it was 72 nM; at Aurora-1 (Aurora B) (setting [2]), 18 nM.

In the case of `Cc1cc(Nc2cc(N3CC(F)(C4CC4)C3)nc(Sc3ccc(NC(=O)CC(F)(F)F)cc3)n2)[nH]n1` [Compound I-14, N-(4-(4-(3-methyl-1H-pyrazol-5-ylamino)-6-(3-cyclopropyl-3-fluoroazetidin-1-yl)pyrimidin-2-ylthio)phenyl)-3,3,3-trifluoropropanamide], the Ki in test [1] worked out at 23 nM; at JAK-2 it was 11 nM; on FLT-3, 65 nM; at Aurora-1 (Aurora B) (setting [2]) it was 6.8 nM. The IC50 amounted to 121 nM against FGFR1 (Table 5) and 65 nM at FGFR1 (Table 6, introduced as Ki values).

`Cc1cc(Nc2cc(N3CC(F)(C4CC4)C3)nc(Sc3ccc(NC(=O)C4CC4)cc3F)n2)n[nH]1` [Compound I-18]: the Ki at JAK-2 is 360 nM; on FLT-3, 160 nM; at Aurora-1 (Aurora B) it was 18 nM. At FGFR1 (Table 5), this compound yielded an IC50 of 22 nM.

Consider `Cc1cc(Nc2cc(N3CC(O)(C4CC4)C3)nc(Sc3ccc(NC(=O)C4CCCC4)cc3)n2)[nH]n1` [Compound I-9, N-(4-((4-(3-methyl-1H-pyrazol-5-ylamino)-6-(3-cyclopropyl-3-hydroxyazetidin-1-yl)pyrimidin-2-yl)sulfanyl)phenyl)cyclopentanecarboxamide], for which the figures for the Ki at JAK-2, on FLT-3 and on Aurora-1 (Aurora B) (setting [2]) were 22 nM, 110 nM and < 6 nM, respectively.

Take `Cc1cc(Nc2cc(N3CC(O)(C4CC4)C3)nc(Sc3ccc(NC(=O)C4CC4(F)F)cc3)n2)[nH]n1` (stereo not drawn) [Compound I-12]: the Ki is 2.9 nM on JAK-2, 15 nM on FLT-3 and 3 nM on Aurora-1 (Aurora B) (setting [2]).

For the compound `CCC(=O)Nc1ccc(Sc2nc(Nc3cc(C)n[nH]3)cc(N3CC(O)(C4CC4)C3)n2)cc1` [Compound I-2], the Ki in test [1] amounted to 64 nM; on JAK-2, 26 nM; on FLT-3, 36 nM; on Aurora-1 (Aurora B) (setting [2]), 7.6 nM.

With `Cc1cc(Nc2cc(N3CC(O)(C4CC4)C3)nc(Sc3ccc(NC(=O)C4CC4)cc3F)n2)[nH]n1` [Compound I-11, N-(4-((4-(3-methyl-1H-pyrazol-5-ylamino)-6-(3-cyclopropyl-3-hydroxyazetidin-1-yl)pyrimidin-2-yl)sulfanyl)-3-fluorophenyl)cyclopropanecarboxamide], the Ki came to 15 nM at JAK-2, 20 nM at FLT-3 and 9 nM on Aurora-1 (Aurora B) (setting [2]).

Take `Cc1cc(Nc2cc(N3CC(F)(C4CC4)C3)nc(Sc3ccc(NC(=O)CC(F)(F)F)nc3)n2)[nH]n1` [Compound I-21, N-(5-(4-(3-methyl-1H-pyrazol-5-ylamino)-6-(3-cyclopropyl-3-fluoroazetidin-1-yl)pyrimidin-2-ylthio)pyridin-2-yl)-3,3,3-trifluoropropanamide]: the Ki turned out to be 28 nM at JAK-2, 120 nM at FLT-3 and 9.5 nM on Aurora-1 (Aurora B) (setting [2]).

In the case of `CCC(=O)Nc1ccc(Sc2nc(Nc3cc(C)n[nH]3)cc(N3CC(O)(C(C)C)C3)n2)cc1` [Compound I-5], the Ki at JAK-2 was determined as 26 nM; at FLT-3, 21 nM; at Aurora-1 (Aurora B) (setting [2]), 14 nM.

In the case of `CCC(=O)Nc1ccc(Sc2nc(Nc3cc(C4CC4)[nH]n3)cc(N3CC(O)(C4CC4)C3)n2)cc1` [Compound I-7], the Ki was 23 nM at JAK-2, 23 nM on FLT-3 and < 6 nM at Aurora-1 (Aurora B) (setting [2]).

For `Cc1cc(Nc2cc(N3CC(O)(C4CC4)C3)nc(Sc3ccc(NC(=O)C4CC4)cc3)n2)n[nH]1` [Compound I-8], the Ki in test [1] is 30 nM; on JAK-2 it was 41 nM; on FLT-3, 28 nM; on Aurora-1 (Aurora B) (setting [2]), 7.1 nM.

`Cc1cc(Nc2cc(N3CC(F)(C4CC4)C3)nc(Sc3ccc(NC(=O)C4CC4)cc3)n2)n[nH]1` [Compound I-13]: the Ki in test [1] is 88 nM; on JAK-2 it was 110 nM; at FLT-3, 43 nM; at Aurora-1 (Aurora B) (setting [2]), 22 nM.

A word on the Ki: it is the equilibrium dissociation constant of an inhibitor or competing ligand from its target. The term IC50 denotes the concentration that gives 50% inhibition. Higher therefore signals weaker potency.
